This test relates to P388 leukemia ip, CD2F1 mice, survival T/C. The test is described as follows: NCI In Vivo Anticancer Drug Screen. Data for tumor model P388 Leukemia (intraperitoneal) in CD2F1 (CDF1) mice. The note with it: endpoint: median survival time, higher = longer survival. The procedure, abridged:
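Mice carrying the transplanted tumor received test compound or vehicle. Survival was recorded in each group, and the value is the treated-group measurement divided by that of the vehicle-treated control group.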

Where [1] appears, read: dose: 50.0 mg/kg/injection, schedule: Q01DX009 (ip), vehicle: saline.
Setting [2] is: dose: 100.0 mg/kg/injection, schedule: Q01DX009 (ip), vehicle: saline.
The mark [3] stands for this setting: dose: 200.0 mg/kg/injection, schedule: Q01DX009 (ip), vehicle: saline.
The mark [4] stands for this setting: dose: 100.0 mg/kg/injection, schedule: Q01DX009 (ip), vehicle: Klucel (hydroxypropylcellulose) (HPC).
The mark [5] stands for this setting: dose: 200.0 mg/kg/injection, schedule: Q01DX009 (ip), vehicle: Klucel (hydroxypropylcellulose) (HPC).
[6] abbreviates: dose: 50.0 mg/kg/injection, schedule: Q01DX005 (ip), vehicle: saline with Tween-80.
[7] abbreviates: dose: 100.0 mg/kg/injection, schedule: Q01DX005 (ip), vehicle: saline with Tween-80.
The mark [8] stands for this setting: dose: 50.0 mg/kg/injection, schedule: Q01DX005 (ip), vehicle: Klucel (hydroxypropylcellulose) (HPC).
The mark [9] stands for this setting: dose: 100.0 mg/kg/injection, schedule: Q01DX005 (ip), vehicle: Klucel (hydroxypropylcellulose) (HPC).
[10] abbreviates: dose: 200.0 mg/kg/injection, schedule: Q01DX005 (ip), vehicle: Klucel (hydroxypropylcellulose) (HPC).
The mark [11] stands for this setting: dose: 60.0 mg/kg/injection, schedule: Q01DX005 (ip), vehicle: saline with Tween-80.
Where [12] appears, read: dose: 120.0 mg/kg/injection, schedule: Q01DX005 (ip), vehicle: saline with Tween-80.
[13] abbreviates: dose: 240.0 mg/kg/injection, schedule: Q01DX005 (ip), vehicle: saline with Tween-80.
[14] abbreviates: dose: 25.0 mg/kg/injection, schedule: Q01DX009 (ip), vehicle: other.
[15] abbreviates: dose: 50.0 mg/kg/injection, schedule: Q01DX009 (ip), vehicle: other.
[16] abbreviates: dose: 100.0 mg/kg/injection, schedule: Q01DX009 (ip), vehicle: other.

“And” between values parts separate entries of the source, which are not always exact repeats. Equal values may be shown once. Inconclusive results and toxic doses are left out.

Regarding `CNC(=O)OCc1c2ccncc2c(C)c2c1[nH]c1ccccc12`, the T/C reads like this: (dose: 6.25 mg/kg/injection, schedule: Q04DX002 (ip), vehicle: saline with Tween-80) 163 % of control; (dose: 12.5 mg/kg/injection, schedule: Q04DX002 (ip), vehicle: saline with Tween-80) 150 % of control; (dose: 25.0 mg/kg/injection, schedule: Q04DX002 (ip), vehicle: saline with Tween-80) 153 % of control and 167 % of control; (dose: 50.0 mg/kg/injection, schedule: Q04DX002 (ip), vehicle: saline with Tween-80) 109 % of control.
As to `COc1ccc2c3c1OC1CC(N4CCCC4)=C(c4c([N+](=O)[O-])cc([N+](=O)[O-])cc4[N+](=O)[O-])C4(O)C(C2)N(C)CCC314` (stereo not given), the T/C is 94 % of control (dose: 60.0 mg/kg/injection, schedule: Q01DX005 (ip), vehicle: Klucel (hydroxypropylcellulose) (HPC)); 94 % of control (dose: 120.0 mg/kg/injection, schedule: Q01DX005 (ip), vehicle: Klucel (hydroxypropylcellulose) (HPC)); 90 % of control (dose: 240.0 mg/kg/injection, schedule: Q01DX005 (ip), vehicle: Klucel (hydroxypropylcellulose) (HPC)).
On to `Cc1c(C(=O)O)no[n+]1[O-]`, for which the T/C is, setting by setting: (dose: 60.0 mg/kg/injection, schedule: Q01DX005 (ip), vehicle: saline) 101 % of control; (dose: 120.0 mg/kg/injection, schedule: Q01DX005 (ip), vehicle: saline) 93 % of control; (dose: 240.0 mg/kg/injection, schedule: Q01DX005 (ip), vehicle: saline) 93 % of control.
As to `C[N+](C)(C)CCOP(=O)([O-])OC1CCCC1`, the T/C is 103 % of control under setting [1], 100 % of control under setting [2] and 105 % of control under setting [3].
On to `BrC/C(=N\N=C(\CBr)c1ccc(Br)cc1)c1ccc(Br)cc1`, for which the T/C by setting is: (dose: 50.0 mg/kg/injection, schedule: Q01DX009 (ip), vehicle: Klucel (hydroxypropylcellulose) (HPC)) 100 % of control; under setting [4], 100 % of control; under setting [5], 91 % of control.
Turning to `CCC(c1ccccc1)(c1ccccc1)c1ccccc1`, the T/C (dose: 100.0 mg/kg/injection, schedule: Q04DX003 (ip), vehicle: saline with Tween-80) was 98 % of control; the T/C (dose: 200.0 mg/kg/injection, schedule: Q04DX003 (ip), vehicle: saline with Tween-80) was 100 % of control; the T/C (dose: 400.0 mg/kg/injection, schedule: Q04DX003 (ip), vehicle: saline with Tween-80) is 94 % of control.
With `O=C1C(=O)c2cccnc2-c2ncccc21`, the T/C is 115 % of control (dose: 1.56 mg/kg/injection, schedule: Q01DX005 (ip), vehicle: Klucel (hydroxypropylcellulose) (HPC)); 106 % of control (dose: 3.12 mg/kg/injection, schedule: Q01DX005 (ip), vehicle: Klucel (hydroxypropylcellulose) (HPC)); 115 % of control (dose: 6.25 mg/kg/injection, schedule: Q01DX005 (ip), vehicle: Klucel (hydroxypropylcellulose) (HPC)).
Consider `CCCCC(CC)CN1CN(CC(CC)CCCC)CC(C)(N)C1` (stereo not given), for which the T/C under setting [6] was 100 % of control and the T/C under setting [7] was 98 % of control.
`CC(=O)N1CC(O)(c2ccccc2)CSc2ccccc21` (stereo not given): the T/C under setting [8] was 95 % of control, the T/C under setting [9] was 95 % of control and the T/C under setting [10] is 96 % of control.
As to `CC1C=CCC(C)(C)C1` (stereo not given), the T/C under setting [4] is 101 % of control; the T/C (dose: 100.0 mg/kg/injection, schedule: Q04DX003 (ip), vehicle: saline) is 88 % of control; the T/C under setting [5] was 106 % of control; the T/C (dose: 200.0 mg/kg/injection, schedule: Q04DX003 (ip), vehicle: saline) was 96 % of control; the T/C (dose: 400.0 mg/kg/injection, schedule: Q04DX003 (ip), vehicle: saline) is 92 % of control.
Turning to `OCC1CCCN1` (stereo not given), the T/C (dose: 100.0 mg/kg/injection, schedule: Q04DX002 (ip), vehicle: saline) was 102 % of control and the T/C (dose: 200.0 mg/kg/injection, schedule: Q04DX002 (ip), vehicle: saline) is 96 % of control.
In the case of `O=C(NN1C(=O)CSC1c1ccc(F)cc1)c1ccncc1` (stereo not given), the T/C runs as follows: under setting [11], 99 % of control; under setting [12], 100 % of control; under setting [13], 92 % of control.
Consider `C1=CCC23COCC2(C1)CSC3` (stereo not given), for which the T/C is, setting by setting: (dose: 12.5 mg/kg/injection, schedule: Q01DX009 (ip), vehicle: saline) 96 % of control; (dose: 25.0 mg/kg/injection, schedule: Q01DX009 (ip), vehicle: saline) 92 % of control; under setting [1], 99 % of control.
Consider `Cc1ccc(C2OC(c3ccc(C)cc3)C(C)C(=O)C2C)cc1` (stereo not given), for which the T/C was 90 % of control under setting [1], 94 % of control under setting [2] and 99 % of control under setting [3].
In the case of `O=C(NC(Cc1cccs1)C(=O)O)c1ccccc1` (stereo not given), the T/C under setting [14] is 102 % of control, the T/C under setting [15] was 96 % of control and the T/C under setting [16] was 102 % of control.
Turning to `CCCCCCCCCCCCCCC(O)C(=O)O` (stereo not given), the T/C (dose: 200.0 mg/kg/injection, schedule: Q01DX009 (ip), vehicle: saline with Tween-80) was 89 % of control.
As for `CC1=NN(c2cc(Cl)c(S(=O)(=O)O)cc2Cl)C(=O)C1N=Nc1ccc(S(=O)(=O)O)cc1` (stereo not given), the T/C is 103 % of control under setting [1], 100 % of control under setting [2] and 99 % of control under setting [3].
On to `N#CC1CSCC1=O` (stereo not given), for which the T/C runs as follows: (dose: 25.0 mg/kg/injection, schedule: Q01DX009 (ip), vehicle: saline with Tween-80) 103 % of control; (dose: 50.0 mg/kg/injection, schedule: Q01DX009 (ip), vehicle: saline with Tween-80) 100 % of control; (dose: 100.0 mg/kg/injection, schedule: Q01DX009 (ip), vehicle: saline with Tween-80) 99 % of control.
Turning to `CC(=O)[C@H]1[C@H](O)C[C@H]2[C@@H]3CCC4=CC(=O)CC[C@]4(C)[C@@]3(F)[C@@H](O)C[C@@]21C`, the T/C under setting [2] was 120 % of control and the T/C under setting [3] is 95 % of control.
Regarding `CN(C)CCCN1C(=O)C2CCC(C)(C1=O)C2(C)C` (stereo not given), the T/C is, setting by setting: under setting [6], 100 % of control; under setting [7], 101 % of control.
Consider `O=C1c2ccccc2N(C(=O)CN2CCOCC2)CN1c1ccccc1`, for which the T/C was 98 % of control under setting [1], 100 % of control under setting [2] and 98 % of control under setting [3].
With `O=C1CCC/C(c2ccccc2)=N\N=C/1c1ccccc1`, the T/C by setting is: under setting [8], 106 % of control; under setting [9], 106 % of control; under setting [10], 103 % of control.
In the case of `O=C(Nc1ccc(S(=O)(=O)F)cc1)Oc1ccc([N+](=O)[O-])cc1`, the T/C reads like this: under setting [11], 121 % of control; under setting [12], 101 % of control; under setting [13], 86 % of control.
Consider `O=[N+]([O-])c1cccc(OCCOc2ccccc2)c1`, for which the T/C was 110 % of control under setting [16] and 105 % of control (dose: 200.0 mg/kg/injection, schedule: Q01DX009 (ip), vehicle: other).
With `NNS(=O)(=O)c1cccc(S(=O)(=O)NN)c1`, the T/C (dose: 12.5 mg/kg/injection, schedule: Q01DX009 (ip), vehicle: other) is 96 % of control; the T/C under setting [14] is 96 % of control; the T/C under setting [15] is 99 % of control.
As for `CCC(Cl)C#N` (stereo not given), the T/C was 106 % of control (dose: 7.5 mg/kg/injection, schedule: Q01DX005 (ip), vehicle: saline with Tween-80) and 100 % of control (dose: 15.0 mg/kg/injection, schedule: Q01DX005 (ip), vehicle: saline with Tween-80).
`CC[N+](C)(CC)c1ccccc1`: the T/C (dose: 25.0 mg/kg/injection, schedule: Q04DX002 (ip), vehicle: saline) is 103 % of control and the T/C (dose: 50.0 mg/kg/injection, schedule: Q04DX002 (ip), vehicle: saline) is 104 % of control.
Take `CS/C(=C/c1ccc2ccccc2[n+]1C)N1CCCC1`: the T/C reads like this: (dose: 0.1 mg/kg/injection, schedule: Q01DX005 (ip), vehicle: saline) 103 % of control; (dose: 0.2 mg/kg/injection, schedule: Q01DX005 (ip), vehicle: saline) 99 % of control; (dose: 0.4 mg/kg/injection, schedule: Q01DX005 (ip), vehicle: saline) 100 % of control; (dose: 0.78 mg/kg/injection, schedule: Q01DX005 (ip), vehicle: saline) 116 % of control; (dose: 1.56 mg/kg/injection, schedule: Q01DX005 (ip), vehicle: saline) 111 % of control.

The values above are taken from PubChem BioAssay AID330 (DTP/NCI, 2004).
